This is an account of results in BindingDB's records for doi:10.1016/s0960-894x(99)00034-7 (University of Tokyo, 1999).

The assay deals with Dipeptidyl peptidase 4 (Homo sapiens, UniProt P27487). In words: Inhibitory activity against Dipeptidylpeptidase IV (DPP IV) in human acute lymphoblastic leukemia MOLT-4 cell line.
Chain of Dipeptidyl peptidase 4 (P27487 whole entry): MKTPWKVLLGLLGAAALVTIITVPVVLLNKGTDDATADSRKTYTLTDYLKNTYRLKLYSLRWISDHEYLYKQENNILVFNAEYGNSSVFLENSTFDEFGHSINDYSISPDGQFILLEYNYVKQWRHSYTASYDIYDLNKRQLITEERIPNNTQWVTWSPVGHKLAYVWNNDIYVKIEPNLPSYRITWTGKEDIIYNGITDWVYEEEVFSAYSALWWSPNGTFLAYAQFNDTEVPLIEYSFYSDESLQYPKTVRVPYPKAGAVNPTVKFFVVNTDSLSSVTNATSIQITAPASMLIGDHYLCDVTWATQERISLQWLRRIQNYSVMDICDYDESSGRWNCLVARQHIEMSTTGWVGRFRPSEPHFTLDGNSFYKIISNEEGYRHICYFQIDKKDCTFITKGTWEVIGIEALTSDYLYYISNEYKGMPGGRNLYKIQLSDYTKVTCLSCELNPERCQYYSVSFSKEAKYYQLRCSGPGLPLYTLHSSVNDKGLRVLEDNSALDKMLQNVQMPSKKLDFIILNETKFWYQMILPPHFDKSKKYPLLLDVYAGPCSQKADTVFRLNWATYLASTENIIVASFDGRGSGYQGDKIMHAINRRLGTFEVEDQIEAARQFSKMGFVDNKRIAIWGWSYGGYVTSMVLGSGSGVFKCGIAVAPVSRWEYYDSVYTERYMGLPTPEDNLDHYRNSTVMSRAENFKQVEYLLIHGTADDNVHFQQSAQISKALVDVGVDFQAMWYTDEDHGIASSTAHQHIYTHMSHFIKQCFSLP

The term IC50 denotes the point on the concentration scale where inhibition reaches its midpoint. On to `CC(C)C[C@H](NC(=O)[C@@H](O)[C@H](N)Cc1ccccc1)C(=O)O`, for which the IC50 was greater than 324 µM.
